Source: US11414416B1, “Compounds and uses thereof” (Foghorn Therapeutics Inc., priority 2019, dated 2022)
Read-outs that look alike come from different tables or passages of the source. Blank lines part the entries; values can stand above or below the molecule they belong to.

Tests used:
[1] = target: BRD9 bromodomain (Homo sapiens (Human), UniProt Q9H8M2); assay: BRD9 bromodomain TR-FRET competition binding assay; details: Table 4; competition with biotinylated ligand, 3 nM Flag-BRD9, 90 minutes
Procedure: Procedure: His-Flag-BRD9 (P133-K239; Swiss Prot Q9H8M2; SEQ ID NO:1 mgsshhhhhhenlyfq/gdykddddkgslevlfqg/[…] […]) was cloned, expressed, purified, and then treated with TEV protease. Cleaved His tag was removed by purification. The binding of a biotinylated small molecule ligand of BRD9 was assessed via the LANCE® TR-FRET platform (PerkinElmer), and the compounds were assayed for inhibitory activity against this interaction.
A mixture of biotinylated-ligand and SureLight™ Allophycocyanin-Streptavidin (APC-SA, PerkinElmer AD0201) in 50 mM HEPES (pH 7.4), 50 mM NaCl, 1 mM TCEP (pH 7), 0.01% (v/v) Tween-20, 0.01% (w/v) bovine serum albumin was added to a white 384-well PerkinElmer Proxiplate Plus plate. DMSO or 3-fold serially diluted compounds were then added to the Proxiplate followed by addition of Flag-BRD9. After a 10-minute incubation at room temperature, Eu-W1024 anti-FLAG (PerkinElmer, AD0273) was added. The final reaction mixture that contained 3.75 nM biotinylated ligand, 3 nM Flag-BRD9, 7.5 nM SureLight™ Allophycocyanin-Streptavidin, and 0.2 nM Eu-W1024 anti-FLAG was incubated at room temperature for 90 minutes.
Results: The plates were then read on a PerkinElmer Envision plate reader to determine the ratio of emission at 665 nm over 615 nm. […]

[2] = target: Nanoluciferase-BRD9 fusion protein (Homo sapiens (Human), UniProt Q9H8M2); assay: SYO1 BRD9 NanoLuc degradation assay; assay type: cell-based; details: SYO-1 cells expressing 3×FLAG-NLuc-BRD9, 6 hours; for DC50: read-out: SYO1 BRD9-NanoLuc degradation IC50
How it was run: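 Degradation was read as loss of nanoluciferase signal (Nano-Glo) after 6 h compound exposure in a stable SYO-1 line carrying 3×FLAG-NLuc-BRD9 (8000 cells/well). Normalised between DMSO (high) and a 1 μM known BRD9 degrader (low).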

Sequence of BRD9 bromodomain (Q9H8M2 133-239): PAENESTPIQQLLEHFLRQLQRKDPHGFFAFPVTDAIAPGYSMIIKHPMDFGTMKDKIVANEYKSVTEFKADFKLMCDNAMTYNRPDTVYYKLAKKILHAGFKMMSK
Sequence of Nanoluciferase-BRD9 fusion protein (Q9H8M2 whole entry, the tested form may be a part): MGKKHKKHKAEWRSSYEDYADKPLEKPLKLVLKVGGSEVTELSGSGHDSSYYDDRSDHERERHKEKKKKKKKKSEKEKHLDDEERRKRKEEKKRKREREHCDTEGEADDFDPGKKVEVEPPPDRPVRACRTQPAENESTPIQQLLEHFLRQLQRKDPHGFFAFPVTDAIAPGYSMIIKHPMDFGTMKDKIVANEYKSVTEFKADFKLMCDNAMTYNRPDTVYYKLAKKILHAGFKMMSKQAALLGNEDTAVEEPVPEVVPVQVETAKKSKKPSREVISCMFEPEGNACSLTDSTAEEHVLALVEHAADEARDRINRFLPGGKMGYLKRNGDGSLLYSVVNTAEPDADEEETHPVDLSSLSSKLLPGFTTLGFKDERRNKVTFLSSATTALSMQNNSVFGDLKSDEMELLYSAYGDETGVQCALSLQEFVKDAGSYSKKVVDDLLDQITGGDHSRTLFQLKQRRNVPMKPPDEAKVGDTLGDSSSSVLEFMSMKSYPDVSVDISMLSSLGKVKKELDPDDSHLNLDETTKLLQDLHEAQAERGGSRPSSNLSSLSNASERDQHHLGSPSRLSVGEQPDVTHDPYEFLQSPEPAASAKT

Compound: COc1cc(-c2cn(C)c(=O)c3cnccc23)cc(OC)c1CN1CC(C(=O)NCCCCCCCCNc2cccc3c2C(=O)N(C2CCC(=O)NC2=O)C3=O)C1 (centres unmarked) [Compound D1, 1-[[2,6-dimethoxy-4-(2-methyl-1-oxo-1,2-dihydro-2,7-naphthyridin-4-yl)phenyl]methyl]-N-(8-[[2-(2,6-dioxopiperidin-3-yl)-1,3-dioxo-2,3-dihydro-1H-isoindol-4-yl]amino]octyl)azetidine-3-carboxamide formic acid]
- IC50 [1]: 10 to 100 nM
- IC50 ([2]; Table 5A): < 10 nM

Compound: COc1cc(-c2cn(C)c(=O)c3cnccc23)cc(OC)c1CN(C)CC(=O)N1CCC(C2CCN(C(=O)COc3cccc4c3C(=O)N(C3CCC(=O)NC3=O)C4=O)CC2)CC1 (centres unmarked) [Compound D2, 4-(2-[1-[2-([[2,6-dimethoxy-4-(2-methyl-1-oxo-1,2-dihydro-2,7-naphthyridin-4-yl)phenyl]methyl](methyl)amino)acetyl]-[4,4-bipiperidin]-1-yl]-2-oxoethoxy)-2-(2,6-dioxopiperidin-3-yl)-2,3-dihydro-1H-isoindole-1,3-dione]
- IC50 [1]: < 10 nM
- DC50 ([2]; Table 5A): 10 to 100 nM

Compound: COc1cc(-c2cn(C)c(=O)c3cnccc23)cc(OC)c1CN1CC(C(=O)NCCCCCNc2cccc3c2C(=O)N(C2CCC(=O)NC2=O)C3=O)C1 (centres unmarked) [Compound D3, 1-[[2,6-dimethoxy-4-(2-methyl-1-oxo-1,2-dihydro-2,7-naphthyridin-4-yl)phenyl]methyl]-N-(5-[[2-(2,6-dioxopiperidin-3-yl)-1,3-dioxo-2,3-dihydro-1H-isoindol-4-yl]amino]pentyl) azetidine-3-carboxamide]
- IC50 [1]: < 10 nM
- IC50 ([2]; Table 5A): < 10 nM

Compound: COc1cc(-c2cn(C)c(=O)c3cnccc23)cc(OC)c1CN1CC(C(=O)NCCCCCCCCNC(=O)COc2cccc3c2C(=O)N(C2CCC(=O)NC2=O)C3=O)C1 (centres unmarked) [Compound D4, N-[8-[(1-[[2,6-dimethoxy-4-(2-methyl-1-oxo-1,2-dihydro-2,7-naphthyridin-4-yl)phenyl]methyl]azetidin-3-yl)formamido]octyl]-2-[[2-(2,6-dioxopiperidin-3-yl)-1,3-dioxo-2,3-dihydro-1H-isoindol-4-yl]oxy]acetamide formic acid]
- IC50 [1]: < 10 nM
- DC50 ([2]; Table 5A): 10 to 100 nM

Compound: COc1cc(-c2cn(C)c(=O)c3cnccc23)cc(OC)c1CN1CC(NC(=O)CCCCCOc2cccc3c2C(=O)N(C2CCC(=O)NC2=O)C3=O)C1 (centres unmarked) [Compound D5, N-(1-[[2,6-dimethoxy-4-(2-methyl-1-oxo-1,2-dihydro-2,7-naphthyridin-4-yl)phenyl]methyl]azetidin-3-yl)-6-[[2-(2,6-dioxopiperidin-3-yl)-1,3-dioxo-2,3-dihydro-1H-isoindol-4-yl]oxy]hexanamide]
- IC50 [1]: < 10 nM
- DC50 ([2]; Table 5A): 10 to 100 nM

Compound: COc1cc(-c2cn(C)c(=O)c3cnccc23)cc(OC)c1CN1CC(C(=O)N2CCC(C3CCN(C(=O)COc4cccc5c4C(=O)N(C4CCC(=O)NC4=O)C5=O)CC3)CC2)C1 (centres unmarked) [Compound D6, 4-[2-[1-(1-[[2,6-dimethoxy-4-(2-methyl-1-oxo-1,2-dihydro-2,7-naphthyridin-4-yl)phenyl]methyl]azetidine-3-carbonyl)-[4,4-bipiperidin]-1-yl]-2-oxoethoxy]-2-(2,6-dioxopiperidin-3-yl)-2,3-dihydro-1H-isoindole-1,3-dione formic acid]
- IC50 [1]: < 10 nM
- IC50 ([2]; Table 5A): < 10 nM

Compound: COc1cc(-c2cn(C)c(=O)c3cnccc23)cc(OC)c1CN1CC(C(=O)NCCOCCOCCNc2cccc3c2C(=O)N(C2CCC(=O)NC2=O)C3=O)C1 (centres unmarked) [Compound D7, 1-[[2,6-dimethoxy-4-(2-methyl-1-oxo-1,2-dihydro-2,7-naphthyridin-4-yl)phenyl]methyl]-N-[2-[2-(2-[[2-(2,6-dioxopiperidin-3-yl)-1,3-dioxo-2,3-dihydro-1H-isoindol-4-yl]amino]ethoxy)ethoxy]ethyl]azetidine-3-carboxamide formic acid]
- IC50 [1]: < 10 nM
- DC50 ([2]; Table 5A): 10 to 100 nM

Compound: COc1cc(-c2cn(C)c(=O)c3cnccc23)cc(OC)c1CN1CC2CN(C(=O)CCOCCOc3cccc4c3C(=O)N(C3CCC(=O)NC3=O)C4=O)CCC21 (centres unmarked) [Compound D92]
- IC50 [1]: < 10 nM

Compound: COc1cc(-c2cn(C)c(=O)c(C)n2)cc(OC)c1CN1CCC2(CC1)CN(c1ccc3c(c1)C(=O)N(C1CCC(=O)NC1=O)C3)C2 (centres unmarked) [Compound D461]
- DC50 ([2]; Table 5C): 10 to 100 nM

Compound: COc1cc(-c2cn(C)c(=O)c3cn(OC)nc23)cc(OC)c1CN1CCC2(CC1)CN(c1ccc3c(c1)C(=O)N(C1CCC(=O)NC1=O)C3)C2 (centres unmarked) [Compound D462]
- DC50 ([2]; Table 5C): < 10 nM

Compound: C/C=C/Cn1cc(-c2ccc(CN3CCN(S(=O)(=O)c4ccc5c(c4)C(=O)N(C4CCC(=O)NC4=O)C5)CC3)c(Cl)c2)n2cncc2c1=O (centres unmarked) [Compound D464]
- IC50 ([2]; Table 5C): > 1000 nM

Compound: C/C=C/Cn1cc(-c2ccc(CN3CCC4(CC3)CN(c3ccc5c(c3)C(=O)N(C3CCC(=O)NC3=O)C5)C4)c(Cl)c2)n2cncc2c1=O (centres unmarked) [Compound D465]
- DC50 ([2]; Table 5C): < 10 nM

Compound: C/C=C/Cn1cc(-c2cc(OC)c(CN3CCC4(CC3)CN(c3ccc5c(c3)C(=O)N(C3CCC(=O)NC3=O)C5)C4)c(OC)c2)c2cc(C)[nH]c2c1=O (centres unmarked) [Compound D467]
- DC50 ([2]; Table 5C): > 1000 nM

Compound: C/C=C/Cn1cc(-c2cc(OC)c(CN3CCN(c4ccc5c(c4)C(=O)N(C4CCC(=O)NC4=O)C5)CC3)c(OC)c2)c2cc(C)[nH]c2c1=O (centres unmarked) [Compound D468]
- DC50 ([2]; Table 5C): > 1000 nM

Compound: COc1cc(-c2cn(C)c(=O)c3cnccc23)cc(OC)c1CN1CCC2(CC1)CN(c1ccnc(C(=O)NC3CCC(=O)NC3=O)c1)C2 (centres unmarked) [Compound D471]
- DC50 ([2]; Table 5C): < 10 nM

Compound: COc1cc(-c2cn(C)c(=O)c3cnccc23)cc(OC)c1CN1CCC2(CC1)CN(c1nccc(C(=O)NC3CCC(=O)NC3=O)n1)C2 (centres unmarked) [Compound D472]
- DC50 ([2]; Table 5C): > 1000 nM

Compound: COc1cc(-c2cn(C)c(=O)c3cnccc23)cc(OC)c1CN1CCC2(CC1)CN(c1cncc(C(=O)NC3CCC(=O)NC3=O)n1)C2 (centres unmarked) [Compound D473]
- DC50 ([2]; Table 5C): > 1000 nM

Compound: COc1cc(-c2cn(C)c(=O)c3cnccc23)cc(OC)c1CN1CCC2(CC1)CN(c1ccc3c(c1)C(=O)N(C1CC(=O)NC(=O)C1)C3)C2 [Compound D474]
- DC50 ([2]; Table 5C): > 1000 nM

Other lines, results leading:

- DC50 ([2]; Table 5B): > 1000 nM
Compound: COc1cc(-c2cn(C)c(=O)c3cnccc23)cc(OC)c1CN(C)CCOCCOCCOCC(=O)N[C@@H](C(=O)N1C[C@@H](O)C[C@@H]1C(=O)NCc1ccc(-c2scnc2C)cc1)C(C)(C)C [DD1]

- DC50 ([2]; Table 5B): 100 to 1000 nM
Compound: COc1cc(-c2cn(C)c(=O)c3cnccc23)cc(OC)c1CN(C)CCN(C)CCNC(=O)COc1ccc2c(c1)C(=O)N(C1CCC(=O)NC1=O)C2=O (centres unmarked) [DD2]

- DC50 ([2]; Table 5B): > 1000 nM
Compound: COc1cc(-c2cn(C)c(=O)c3cnccc23)cc(OC)c1CN(C)CCOCCOCCNc1cccc2nc(C)n(C3CCC(=O)NC3=O)c(=O)c12 (centres unmarked) [DD3]

- DC50 ([2]; Table 5B): < 10 nM
Compound: COc1cc(-c2cn(C)c(=O)c3cnccc23)cc(OC)c1CN(C)CCCCCCCCNc1cccc2c1CN(C1CCC(=O)NC1=O)C2=O (centres unmarked) [DD4]

- DC50 ([2]; Table 5B): 10 to 100 nM
Compound: COc1cc(-c2cn(C)c(=O)c3cnccc23)cc(OC)c1CN(C)CCCCCCCCNc1cccc2nc(C)n(C3CCC(=O)NC3=O)c(=O)c12 (centres unmarked) [DD5]

- DC50 ([2]; Table 5B): 10 to 100 nM
Compound: COc1cc(-c2cn(C)c(=O)c3cnccc23)cc(OC)c1CN(C)CC(=O)NCCN1Cc2cc3c(cc2C1)C(=O)N(C1CCC(=O)NC1=O)C3=O (centres unmarked) [DD6]

- DC50 ([2]; Table 5B): < 10 nM
Compound: COc1cc(-c2cn(C)c(=O)c3cnccc23)cc(OC)c1CN(C)CC(=O)NCCCCOc1ccc(-c2ccc3c(c2)C(=O)C(C2CCC(=O)NC2=O)C3=O)cc1 (centres unmarked) [DD7]

- DC50 ([2]; Table 5B): < 10 nM
Compound: COc1cc(-c2cn(C)c(=O)c3cnccc23)cc(OC)c1CN(C)CC(=O)NCCCCCOc1ccc(-c2ccc3c(c2)C(=O)N(C2CCC(=O)NC2=O)C3=O)cc1 (centres unmarked) [DD8]

- DC50 ([2]; Table 5B): < 10 nM
Compound: COc1cc(-c2cc(C)c(=O)n(C)c2)cc(OC)c1CN1Cc2cc3c(cc2C1)C(=O)N(C1CCC(=O)NC1=O)C3=O (centres unmarked) [DD9]

- DC50 ([2]; Table 5B): 100 to 1000 nM
Compound: COc1cc(-c2cc(C)c(F)c3ccccc23)cc(OC)c1CN1CCC(CN2CCC3(CC2)CC(Oc2ccc4c(c2)C(=O)N(C2CCC(=O)NC2=O)C4=O)C3)CC1 (centres unmarked) [DD10]

- DC50 ([2]; Table 5C): > 1000 nM
Compound: COc1cc(-c2cc(C)cc3ccccc23)cc(OC)c1CN1CCC(CN2CCC3(CC2)CC(Oc2ccc4c(c2)C(=O)N(C2CCC(=O)NC2=O)C4=O)C3)CC1 (centres unmarked) [DD11]

- DC50 ([2]; Table 5C): > 1000 nM
Compound: COc1cccc(OC)c1CN1CCC2(CC1)CN(c1ccc3c(c1)C(=O)N(C1CCC(=O)NC1=O)C3)C2 (centres unmarked) [DD12]

- DC50 ([2]; Table 5C): 10 to 100 nM
Compound: COc1cc(-c2cccc3c(=O)n(C)ccc23)cc(OC)c1CN1CCC2(CC1)CN(c1ccc3c(c1)C(=O)N(C1CCC(=O)NC1=O)C3)C2 (centres unmarked) [DD13]

- DC50 ([2]; Table 5C): > 1000 nM
Compound: COc1cccc(OC)c1CN1CCN(c2ccc3c(c2)C(=O)N(C2CCC(=O)NC2=O)C3)CC1 (centres unmarked) [DD14]

- DC50 ([2]; Table 5C): 10 to 100 nM
Compound: COc1cc(-c2nc(N)nc3[nH]cnc23)cc(OC)c1CN1CCC2(CC1)CN(c1ccc3c(c1)C(=O)N(C1CCC(=O)NC1=O)C3)C2 (centres unmarked) [DD15]

- DC50 ([2]; Table 5C): 10 to 100 nM
Compound: Cn1ccc2oc(C(=O)NC3CCN(c4ccc5c(c4)C(=O)N(C4CCC(=O)NC4=O)C5)CC3)cc2c1=O (centres unmarked) [DD16]
